PubChem BioAssay AID1963448 (Molecular Pharmacology Branch, DTP, NCI, 2024)
Blank lines part the entries; values can stand above or below the compound they belong to.

System: 616215-338-R-J1-PDC complex spheroid growth, % test/control
Assay: Anticancer human tumor 616215-338-R-J1-PDC patient-derived colon adenocarcinoma cell line growth inhibition [Asc]
Settings: for IC50: curve of first compound; for viability, T/C: stronger effect = lower value
Procedure, shortened: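 Tumor cells were grown as complex spheroids with human endothelial cells (HUVEC) and human mesenchymal stem cells as stroma. Agents were tested alone and in combination, in half-log steps down from the clinical Cmax, or from 10 microM where Cmax was unknown.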

[1] = second compound 0.1 µM, first compound 0.00316 µM
[2] = second compound 0.1 µM, first compound 0.01 µM
[3] = second compound 0.1 µM, first compound 0.0316 µM
[4] = second compound 0.1 µM, first compound 0.1 µM
[5] = second compound 0.1 µM, first compound 0.316 µM
[6] = second compound 0.1 µM, first compound 1 µM
[7] = second compound 0.316 µM, first compound 0.00316 µM
[8] = second compound 0.316 µM, first compound 0.01 µM
[9] = second compound 0.316 µM, first compound 0.0316 µM
[10] = second compound 0.316 µM, first compound 0.1 µM
[11] = second compound 0.316 µM, first compound 0.316 µM
[12] = second compound 0.316 µM, first compound 1 µM
[13] = second compound 1 µM, first compound 0.00316 µM
[14] = second compound 1 µM, first compound 0.01 µM
[15] = second compound 1 µM, first compound 0.0316 µM
[16] = second compound 1 µM, first compound 0.1 µM
[17] = second compound 1 µM, first compound 0.316 µM
[18] = second compound 1 µM, first compound 1 µM
[19] = second compound 3.16 µM, first compound 0.00316 µM
[20] = second compound 3.16 µM, first compound 0.01 µM
[21] = second compound 3.16 µM, first compound 0.0316 µM
[22] = second compound 3.16 µM, first compound 0.1 µM
[23] = second compound 3.16 µM, first compound 0.316 µM
[24] = second compound 3.16 µM, first compound 1 µM
[25] = second compound 10 µM, first compound 0.00316 µM
[26] = second compound 10 µM, first compound 0.01 µM
[27] = second compound 10 µM, first compound 0.0316 µM
[28] = second compound 10 µM, first compound 0.1 µM
[29] = second compound 10 µM, first compound 0.316 µM
[30] = second compound 10 µM, first compound 1 µM
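Note: spheroids exposed to agents for seven days before readout.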
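Throughout, for viability, T/C: 100% = DMSO vehicle control viability.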

IC50 (second compound 0.1 µM): > 1000 nM | IC50 (second compound 0.316 µM): > 1000 nM | IC50 (second compound 1 µM): > 1000 nM | IC50 (second compound 3.16 µM): < 3.16 nM | IC50 (second compound 10 µM): < 3.16 nM
Structure (SMILES): CCN1CCN(Cc2ccc(Nc3ncc(F)c(-c4cc(F)c5nc(C)n(C(C)C)c5c4)n3)nc2)CC1 + Cc1c(S(C)(=O)=O)c(-c2cc(F)cc(N3CCN(c4ccc(NS(=O)(=O)c5ccc(NC(CCN6CCC(C(=O)OCCCP(=O)(O)O)CC6)CSc6ccccc6)c(S(=O)(=O)C(F)(F)F)c5)cc4)CC3)c2)c(-c2ccc(Cl)cc2)n1C(C)C
viability, T/C [1]: 92.5% | viability, T/C [2]: 89.3% | viability, T/C [3]: 92.6% | viability, T/C [4]: 96.5% | viability, T/C [5]: 100% | viability, T/C [6]: 129% | viability, T/C [7]: 86% | viability, T/C [8]: 84.9% | viability, T/C [9]: 93.2% | viability, T/C [10]: 99.7% | viability, T/C [11]: 109% | viability, T/C [12]: 130% | viability, T/C [13]: 68.5% | viability, T/C [14]: 75.8% | viability, T/C [15]: 77.9% | viability, T/C [16]: 78% | viability, T/C [17]: 99.3% | viability, T/C [18]: 95.9% | viability, T/C [19]: 45.9% | viability, T/C [20]: 52.7% | viability, T/C [21]: 58.6% | viability, T/C [22]: 69% | viability, T/C [23]: 86.1% | viability, T/C [24]: 54.8% | viability, T/C [25]: 30% | viability, T/C [26]: 32.9% | viability, T/C [27]: 34% | viability, T/C [28]: 39.4% | viability, T/C [29]: 67.7% | viability, T/C [30]: 24.7%

IC50 (second compound 0.1 µM): 231 nM | IC50 (second compound 0.316 µM): 185 nM | IC50 (second compound 1 µM): 126 nM | IC50 (second compound 3.16 µM): 36.4 nM | IC50 (second compound 10 µM): < 3.16 nM
Structure (SMILES): COc1c(OCCCN2CCOCC2)ccc2c3n(c(=NC(=O)c4cnc(N)nc4)nc12)CCN3 + Cc1c(S(C)(=O)=O)c(-c2cc(F)cc(N3CCN(c4ccc(NS(=O)(=O)c5ccc(NC(CCN6CCC(C(=O)OCCCP(=O)(O)O)CC6)CSc6ccccc6)c(S(=O)(=O)C(F)(F)F)c5)cc4)CC3)c2)c(-c2ccc(Cl)cc2)n1C(C)C
viability, T/C [1]: 93.1% | viability, T/C [2]: 100% | viability, T/C [3]: 100% | viability, T/C [4]: 88.2% | viability, T/C [5]: 35.5% | viability, T/C [6]: 7.35% | viability, T/C [7]: 90.5% | viability, T/C [8]: 96.7% | viability, T/C [9]: 105% | viability, T/C [10]: 81.1% | viability, T/C [11]: 22.2% | viability, T/C [12]: 2.69% | viability, T/C [13]: 71.7% | viability, T/C [14]: 78.3% | viability, T/C [15]: 78.6% | viability, T/C [16]: 60.6% | viability, T/C [17]: 7.07% | viability, T/C [18]: 0.53% | viability, T/C [19]: 45.4% | viability, T/C [20]: 53.2% | viability, T/C [21]: 63% | viability, T/C [22]: 22.1% | viability, T/C [23]: 1.45% | viability, T/C [24]: 0.19% | viability, T/C [25]: 28.8% | viability, T/C [26]: 30.3% | viability, T/C [27]: 35.4% | viability, T/C [28]: 4.88% | viability, T/C [29]: 0.24% | viability, T/C [30]: 0.29%

IC50 (second compound 0.1 µM): > 300 nM | IC50 (second compound 0.316 µM): 143 nM | IC50 (second compound 1 µM): 36.6 nM | IC50 (second compound 3.16 µM): < 0.949 nM | IC50 (second compound 10 µM): < 0.949 nM
Structure (SMILES): NC(=O)C(=Cn1cnc(-c2cc(C(F)(F)F)cc(C(F)(F)F)c2)n1)c1cncnc1 + Cc1c(S(C)(=O)=O)c(-c2cc(F)cc(N3CCN(c4ccc(NS(=O)(=O)c5ccc(NC(CCN6CCC(C(=O)OCCCP(=O)(O)O)CC6)CSc6ccccc6)c(S(=O)(=O)C(F)(F)F)c5)cc4)CC3)c2)c(-c2ccc(Cl)cc2)n1C(C)C
viability, T/C (second compound 0.1 µM, first compound 0.000949 µM): 91.7% | viability, T/C (second compound 0.1 µM, first compound 0.003 µM): 91.1% | viability, T/C (second compound 0.1 µM, first compound 0.00949 µM): 87.2% | viability, T/C (second compound 0.1 µM, first compound 0.03 µM): 91.7% | viability, T/C (second compound 0.1 µM, first compound 0.0949 µM): 81% | viability, T/C (second compound 0.1 µM, first compound 0.3 µM): 71.8% | viability, T/C (second compound 0.316 µM, first compound 0.000949 µM): 95.6% | viability, T/C (second compound 0.316 µM, first compound 0.003 µM): 97.5% | viability, T/C (second compound 0.316 µM, first compound 0.00949 µM): 89.3% | viability, T/C (second compound 0.316 µM, first compound 0.03 µM): 78.8% | viability, T/C (second compound 0.316 µM, first compound 0.0949 µM): 64.7% | viability, T/C (second compound 0.316 µM, first compound 0.3 µM): 26.7% | viability, T/C (second compound 1 µM, first compound 0.000949 µM): 67% | viability, T/C (second compound 1 µM, first compound 0.003 µM): 71.3% | viability, T/C (second compound 1 µM, first compound 0.00949 µM): 68.5% | viability, T/C (second compound 1 µM, first compound 0.03 µM): 55.9% | viability, T/C (second compound 1 µM, first compound 0.0949 µM): 20.6% | viability, T/C (second compound 1 µM, first compound 0.3 µM): 1.76% | viability, T/C (second compound 3.16 µM, first compound 0.000949 µM): 41.7% | viability, T/C (second compound 3.16 µM, first compound 0.003 µM): 42.7% | viability, T/C (second compound 3.16 µM, first compound 0.00949 µM): 34.4% | viability, T/C (second compound 3.16 µM, first compound 0.03 µM): 24.3% | viability, T/C (second compound 3.16 µM, first compound 0.0949 µM): 2.24% | viability, T/C (second compound 3.16 µM, first compound 0.3 µM): 0.67% | viability, T/C (second compound 10 µM, first compound 0.000949 µM): 27.9% | viability, T/C (second compound 10 µM, first compound 0.003 µM): 25% | viability, T/C (second compound 10 µM, first compound 0.00949 µM): 19.2% | viability, T/C (second compound 10 µM, first compound 0.03 µM): 6.13% | viability, T/C (second compound 10 µM, first compound 0.0949 µM): 0.4% | viability, T/C (second compound 10 µM, first compound 0.3 µM): 0.25%

IC50 (second compound 0.1 µM): > 100 nM | IC50 (second compound 0.316 µM): > 100 nM | IC50 (second compound 1 µM): > 100 nM | IC50 (second compound 3.16 µM): < 0.316 nM | IC50 (second compound 10 µM): < 0.316 nM
Structure (SMILES): NC1CCC(NC2CC2c2ccccc2)CC1 (stereo not given) + Cc1c(S(C)(=O)=O)c(-c2cc(F)cc(N3CCN(c4ccc(NS(=O)(=O)c5ccc(NC(CCN6CCC(C(=O)OCCCP(=O)(O)O)CC6)CSc6ccccc6)c(S(=O)(=O)C(F)(F)F)c5)cc4)CC3)c2)c(-c2ccc(Cl)cc2)n1C(C)C
viability, T/C (second compound 0.1 µM, first compound 0.000316 µM): 85.7% | viability, T/C (second compound 0.1 µM, first compound 0.001 µM): 83% | viability, T/C [1]: 89% | viability, T/C [2]: 85.8% | viability, T/C [3]: 83.2% | viability, T/C [4]: 81.7% | viability, T/C (second compound 0.316 µM, first compound 0.000316 µM): 86.5% | viability, T/C (second compound 0.316 µM, first compound 0.001 µM): 79.6% | viability, T/C [7]: 78.3% | viability, T/C [8]: 78.7% | viability, T/C [9]: 79.5% | viability, T/C [10]: 79% | viability, T/C (second compound 1 µM, first compound 0.000316 µM): 73.5% | viability, T/C (second compound 1 µM, first compound 0.001 µM): 68.1% | viability, T/C [13]: 64.8% | viability, T/C [14]: 62.5% | viability, T/C [15]: 61.8% | viability, T/C [16]: 60.8% | viability, T/C (second compound 3.16 µM, first compound 0.000316 µM): 37.5% | viability, T/C (second compound 3.16 µM, first compound 0.001 µM): 40.5% | viability, T/C [19]: 36.6% | viability, T/C [20]: 32% | viability, T/C [21]: 31.2% | viability, T/C [22]: 34.7% | viability, T/C (second compound 10 µM, first compound 0.000316 µM): 24.5% | viability, T/C (second compound 10 µM, first compound 0.001 µM): 22.4% | viability, T/C [25]: 21.8% | viability, T/C [26]: 24% | viability, T/C [27]: 20% | viability, T/C [28]: 21.5%
